Tested on: MV-3 RFP cells
Experiment: T-cell TCB MV3 killing assay
Format: cell-based, human
Conditions: isomer A; for EC50: primary human T-cells + MCSP-TCB on MV-3 RFP cells, imaging over 120 hours, read-out: MSCP TCB killing MV-3 cells 5 d EC50; for Emax: Homo sapiens, MV-3, 120 h, read-out: MSCP TCB killing MV-3 cells 5 d Emax (%)
Procedure: All culturing steps are executed at 5% CO2, 37° C. and 95% humidity.
MV-3 RFP cells are cultured in MV-3 medium (DMEM+10% FBS, 1× PenStrep and 0.5 μg/mL Puromycin) for at least 3 weeks. Cultured MV-3 cells at 80% confluency are washed once with PBS−− and trypsinized until detached. Cells are then counted and resuspended to 1*10^5 cells/mL in T-cell medium (RPMI 1640+5% human serum+1 mM Sodium Pyruvate+50 μM 2-mercaptoethanol and 1× Pen-Strep). Cells are seeded with 100 μL/well into a 96-well plate (TTP, #92696), and placed for 40 minutes without moving at room temperature in order to achieve evenly distributed attachment of cells. Plates are then incubated until further use.
On the next day, expanded primary human T-cells are thawed and resuspended in T-cell medium to 4*10^6 cells/mL. For 3 hours, they are cultured in a 6-well plate with 6 mL per well at maximum. After culturing the T-cells, they are filtered through a cell strainer (Miltenyi Biotech, #130-041-407), counted again, and cell concentration is adjusted to 2*10^6 cells/mL.
MCSP-TCB or PBS are pre-diluted in T-cell medium (concentration depending on T-cell donor), 4 times more concentrated than the end-concentration. 60 μL/well of pre-dilutions are then distributed into a round bottom plate (Costar, #3799) according to plate layout. Compounds are added in a 9 pt dose response with the Tecan D300e Digital Dispenser, as well 4 times more concentrated than the end-concentration. DMSO concentration of all wells is adjusted to 0.8%, resulting in 0.2% as final concentration.
60 μL per well of T-cell suspension are added to the prepared round bottom plate and resuspended with a manual multichannel. 100 μL/well of the resuspended T-cell suspension including treatments are then transferred cautiously to the over-night cultured MV-3 cells according to plate layout. 100 μL T-cell medium only is added to the outer MV-3 wells only. Final compound DR is starting at 20 μM with a dilution factor of 3.333. Final TCB concentration is between […] and was determined for each T-cell donor individually by running TCB titrations. For each donor, a TCB concentration was chosen which corresponds to 10-20% of MV3 baseline cell killing in the absence of compound treatment. Positive control is the reference compound A1 which is added in a DR, as well as additional wells with only 20 μM. 20 μM of reference compound A1 represent the positive stimulator control, TCB only (DMSO wells) the neutral control.
After transfer of T-cells with treatment pre-dilutions, MV-3 cells are imaged by time-lapse microscopy using IncucyteZOOM™ (Essen BioScience, MI, USA). Imaging is performed every 3 hours for a total of 120 hours (10× objective, phase and red image channels, acquisition time 400 ms, Green/Red 4614 optical module). RFP object count per well is analysed in the IncucyteZOOM™ Software (Version 2019B Rev2) with a mask that was previously created and optimized for MV-3 cells. Raw data is exported as object count/well and values are normalized as % TCL compared to wells with MV-3 only, representing 100% growth and therefore 0% TCL.
Calculated 00 TCL values are analysed in Genedata Screener using Roche Normalization PCT_POS_CTRL with MCSP-TCB only set as Neutral Control and 20 μM of the reference compound A1 set as Stimulator Control/100%.
Induced TCL by compounds without TCB treatment or toxicity (observed in the PBS condition) were be flagged.

[1] = 20 μM reference compound A1 = 100%, MCSP-TCB only neutral control

2-methyl-2-[5-[(3S)-3-amino-5,5,7-trifluoro-2-oxo-1-[[4-(trifluoromethoxy)phenyl]methyl]-3,4-dihydro-1-benzazepin-8-yl]-1,3,4-oxadiazol-2-yl]propanenitrile and 2-methyl-2-[5-[(3R)-3-amino-5,5,7-trifluoro-2-oxo-1-[[4-(trifluoromethoxy)phenyl]methyl]-3,4-dihydro-1-benzazepin-8-yl]-1,3,4-oxadiazol-2-yl]propanenitrile [Example 2]
MSCP TCB killing MV-3 cells 5 d Emax (%) [1]: 93%
EC50: 43 nM

CC(C)(c1nnc(-c2cc3c(cc2F)C(F)(F)CC(N)C(=O)N3Cc2ccc(Oc3ccccc3)cc2)o1)S(C)(=O)=O (racemic) [Example 5, (3S)-3-amino-5,5,7-trifluoro-8-[5-(1-methyl-1-methylsulfonyl-ethyl)-1,3,4-oxadiazol-2-yl]-1-[(4-phenoxyphenyl)methyl]-3,4-dihydro-1-benzazepin-2-one and (3R)-3-amino-5,5,7-trifluoro-8-[5-(1-methyl-1-methylsulfonyl-ethyl)-1,3,4-oxadiazol-2-yl]-1-[(4-phenoxyphenyl)methyl]-3,4-dihydro-1-benzazepin-2-one]
Emax [1]: 130%
EC50: 372 nM

COC(F)(c1nnc(-c2cc3c(cc2F)C(F)(F)C[C@H](N)C(=O)N3Cc2ccc(OC(F)(F)F)cc2)o1)C(F)(F)F (single isomer, unassigned) [Example 4]
Emax [1]: 94%
EC50: 69 nM

CC(C)(c1nnc(-c2cc3c(cc2F)C(F)(F)C[C@@H](N)C(=O)N3Cc2ccc(-c3ccc(C(F)(F)F)cn3)cc2)o1)S(C)(=O)=O (single isomer, unassigned) [Example 8]
Emax [1]: 100%

COc1ccc(-c2ccc(CN3C(=O)[C@H](N)CC(F)(F)c4cc(F)c(-c5nnc(C(C)(C)C#N)o5)cc43)cc2)cc1 (single isomer, unassigned) [Example 9]
Emax [1]: 92%

CC(C)(C#N)c1nnc(-c2cc3c(cc2F)C(F)(F)C[C@@H](N)C(=O)N3Cc2ccc(-c3ccc(C(F)(F)F)cn3)cc2)o1 (single isomer, unassigned) [Example 12]
Emax [1]: 103%

N[C@@H]1CC(F)(F)c2cc(F)c(-c3nnc(N4CCCC4)o3)cc2N(Cc2ccc(-c3noc(C(F)(F)F)n3)cc2)C1=O (single isomer, unassigned) [Example 14]
Emax [1]: 113%

CC(C)(c1nnc(-c2cc3c(cc2F)C(F)(F)C[C@@H](N)C(=O)N3Cc2ccc(-c3noc(C(F)(F)F)n3)cc2)o1)S(C)(=O)=O (single isomer, unassigned) [Example 16]
Emax [1]: 84%

N[C@@H]1CC(F)(F)c2cc(F)c(-c3nnc(N4CCOC5(CC5)C4)o3)cc2N(Cc2ccc(-c3noc(C(F)(F)F)n3)cc2)C1=O (single isomer, unassigned) [Example 17]
Emax [1]: 105%

CC(C)(C#N)c1nnc(-c2cc3c(cc2F)C(F)(F)C[C@@H](N)C(=O)N3Cc2ccc(-c3ccc(OC(F)F)cn3)cc2)o1 (single isomer, unassigned) [Example 41]
Emax [1]: 98%
